This is an account of results in ChEMBL document CHEMBL1128938, “Evaluation of furofuran as a P2 ligand for symmetry-based HIV protease inhibitors” (Bioorg Med Chem Lett, 1996).

In data set [1] the test system is MT4. As to the kind of experiment: Tested for its anti-HIV activity in MT-4 cells in the presence of 50% human serum. It is filed as functional, cell-based.
The target of data set [2] is Human immunodeficiency virus type 1 protease (Human immunodeficiency virus 1) (UniProt Q72874). As to the kind of experiment: Tested for its inhibition against HIV protease at a concentration of 0.5 nM.
Data set [3] deals with MT4. Kind of data set: Cytotoxicity in MT-4 cells using cytopathicity assay. Type of data set: functional, Homo sapiens. A general note: Cytopathic effects are the visible damage that an infection or toxin causes in cultured cells.
For data set [4], the system named is MT4. As to the kind of experiment: Tested for its anti-HIV activity in MT-4 cells. Particulars: Homo sapiens. Type of data set: functional, cell-based.
Data set [5] is described as follows: Half-life value after IV dose at a dose of 5 mg/kg in rats. Type of data set: ADME, organism-based. More on the design: dose 5 mg/kg, route intravenous. Particulars: rat, in vivo.
Data set [6] is described as follows: Oral bioavailability in rat (dose 10 mg/kg p.o.). Type of data set: ADME, organism-based. Particulars: in vivo.
The nature of data set [7]: AUC value after oral dose at a dose of 10 mg/kg in rats. It is filed as ADME, organism-based. Particulars: rat, plasma. More on the design: dose 10 mg/kg, route oral.
Data set [8] is described as follows: Cmax value after oral dose at a dose of 10 mg/kg in rats. The settings on record: rat, in vivo. Type of data set: ADME, organism-based. More on the design: dose 10 mg/kg, route oral.
A short description of data set [9]: Tmax value after oral dose at a dose of 10 mg/kg in rats. Also noted: dose 10 mg/kg, route oral. Type of data set: ADME, organism-based. Particulars: rat, in vivo.
A short description of data set [10]: AUC value after IV dose at a dose of 5 mg/kg in rats. The settings on record: rat, plasma. It is filed as ADME, organism-based. Also noted: dose 5 mg/kg, route intravenous.
In data set [11] the target is Human immunodeficiency virus type 1 protease (Human immunodeficiency virus 1) (UniProt Q72874). As to the kind of experiment: Compound was tested for its inhibition against HIV protease at a concentration of 4 nM.

SMILES strings stand for the structures. Where only a bound is given, the exact number is not on record here.

Take `O=C(N[C@@H](Cc1ccccc1)C[C@H](O)[C@H](Cc1ccccc1)NC(=O)O[C@H]1COC2OCCC21)O[C@H]1COC2OCCC21` (stereo partly drawn): the EC50 (usually the concentration at which the effect is half-maximal) with MT4 [1] was determined as 115 nM; with MT4 [4] it was 34 nM. In [2], the inhibition (as a rule, the change of the read-out against control, counted positive when it falls) came to 64%. Besides, in the data set with MT4 [3], the CCIC50 was >100 µM.

On to `O=C(N[C@@H](Cc1ccccc1)C[C@H](O)[C@H](Cc1ccccc1)NC(=O)O[C@H]1COC2OCCC21)Oc1cncs1` (stereo partly drawn), for which the half-life – broadly, how long it takes for the measured level to halve – in data set [5] is 41.4 min. For the same compound, the values for the EC50 in the data set with MT4 [1] and in the data set with MT4 [4] were 290 nM and 140 nM, respectively. This compound also showed an inhibition in data set [2] of 53%. For the same compound, the bioavailability (commonly the share of a dose that reaches the circulation, judged against a reference dose that is usually intravenous) in [6] stood at 41.1%. Also, in the data set with MT4 [3], the CCIC50 was >100 µM. Moreover, the exposure (AUC) (in general, concentration integrated over time) in data set [7] came out at 1890 ng·h/mL; in data set [10] it was 2300 ng·h/mL. For the same compound, the peak concentration (Cmax) (as a rule, the peak of the concentration-time curve) in data set [8] stood at 1120 ng/mL. Moreover, the time of peak concentration (Tmax) (as a rule, the time at which the peak concentration occurs) in data set [9] came out at 30 min.

For the compound `O=C(N[C@@H](Cc1ccccc1)C[C@H](O)[C@H](Cc1ccccc1)NC(=O)OC1COC2OCCC12)Oc1cncs1` (stereo partly drawn), the EC50 was determined as 1200 nM in the data set with MT4 [1] and 502 nM in the data set on MT4 [4]. The compound further returned an inhibition in [2] of 43%. Besides, the CCIC50 in the data set with MT4 [3] is >100 µM.

On to `O=C(N[C@@H](Cc1ccccc1)C[C@H](O)[C@H](Cc1ccccc1)NC(=O)OC1COC2OCCC12)OC1COC2OCCC12` (stereo partly drawn), for which the EC50 is 77 nM with MT4 [1] and 71 nM with MT4 [4]. The inhibition in data set [2] came out at 53%. For the same compound, the CCIC50 in the data set with MT4 [3] is >100 µM.

As to `O=C(N[C@@H](Cc1ccccc1)[C@@H](O)C[C@H](Cc1ccccc1)NC(=O)OC1COC2OCCC12)Oc1cncs1` (stereo partly drawn), the concentration for a half-maximal effect (EC50) in the data set with MT4 [1] stood at 774 nM; in the data set with MT4 [4] it was 428 nM. The compound further yielded an inhibition in data set [2] of 52%. The CCIC50 with MT4 [3] was >100 µM.

Consider `CC(C)(C)OC(=O)N[C@@H](Cc1ccccc1)C[C@H](O)[C@H](Cc1ccccc1)NC(=O)OC1COC2OCCC12` (stereo partly drawn), for which the EC50 in the data set on MT4 [1] and in the data set with MT4 [4] was 200 nM in each case. In [2], the inhibition was found to be 49%. Moreover, the CCIC50 in the data set with MT4 [3] is 56 µM.

Consider `CC(C)(C)OC(=O)N[C@@H](Cc1ccccc1)C[C@H](O)[C@H](Cc1ccccc1)NC(=O)O[C@H]1COC2OCCC21` (stereo partly drawn), for which the inhibition in data set [2] stood at 63%. Further, the CCIC50 in the data set on MT4 [3] was determined as 69 µM. Also, in the data set with MT4 [4], the response was half-maximal at 180 nM (EC50).

Take `O=C(N[C@@H](Cc1ccccc1)[C@@H](O)C[C@H](Cc1ccccc1)NC(=O)O[C@@H]1COC2OCCC21)O[C@H]1COC2OCCC21` (stereo partly drawn): the concentration for a half-maximal effect (EC50) with MT4 [1] was found to be 1920 nM; in the data set with MT4 [4] it was 891 nM. In addition, in data set [2], the inhibition stood at 39%. Further, the CCIC50 in the data set on MT4 [3] is >100 µM.

`CC(C)c1nc(CN(C)C(=O)N[C@H](C(=O)N[C@@H](Cc2ccccc2)C[C@H](O)[C@H](Cc2ccccc2)NC(=O)OCc2cncs2)C(C)C)cs1` [RITONAVIR]: the half-maximal effective concentration (EC50) in the data set on MT4 [1] turned out to be 810 nM; with MT4 [4], 70 nM. Also, the inhibition in data set [2] stood at 78%. The same compound displayed a CCIC50 in the data set on MT4 [3] of 56 µM.

`O=C(N[C@@H](Cc1ccccc1)C[C@H](O)[C@H](Cc1ccccc1)NC(=O)O[C@@H]1COC2OCCC21)O[C@H]1COC2OCCC21` (stereo partly drawn): the EC50 is 197 nM in the data set on MT4 [1] and 107 nM in the data set with MT4 [4]. Besides, the inhibition in data set [2] was determined as 73%. In the data set with MT4 [3], the CCIC50 is >100 µM.

On to `CC(C)(C)OC(=O)N[C@@H](Cc1ccccc1)C[C@H](O)[C@H](Cc1ccccc1)NC(=O)O[C@@H]1COC2OCCC21` (stereo partly drawn), for which the EC50 turned out to be 4730 nM in the data set on MT4 [1] and 1040 nM in the data set with MT4 [4]. Moreover, the inhibition in [2] is 45%. For the same compound, in the data set with MT4 [3], the CCIC50 was >100 µM.

On to `O=C(N[C@@H](Cc1ccccc1)C[C@H](O)[C@H](Cc1ccccc1)NC(=O)O[C@@H]1COC2OCCC21)O[C@@H]1COC2OCCC21` (stereo partly drawn), for which, in data set [11], the inhibition came to 50%. Further, the concentration giving a half-maximal response (EC50) is 4180 nM in the data set with MT4 [1] and 3680 nM in the data set with MT4 [4]. Also, the CCIC50 in the data set on MT4 [3] was >100 µM.
